# Test results reported in US12496304B2, “Selective glucocorticoid receptor modifiers for treating impaired skin wound healing” (AKRIBES BIOMEDICAL GMBH, priority 2019, dated 2025).
# Where two headings read alike, the source gives them in different places.
# Assays:
# [1] = system: primary human dermal fibroblasts (HDF); assay: Fibroblast proliferation assay (2D) in the presence of wound exudate; format: cell-based; details: for fibroblast proliferation (2D) with wound exudate: graded concentrations
# Experimental: (§1) Primary human dermal fibroblasts (HDF) were purchased from CELLnTEC, Bern. They were routinely grown in Dulbecco's modified Eagle's medium (DMEM) containing 10% FCS, 2 mM glutamine, and 100 U/ml penicillin/100 μg/ml streptomycin. Media, antibiotics, and glutamine were bought from Lonza. The cells were used at passage 5-15. Cells were trypsinized and seeded at 2500 cells/well in 30 μl into the inner wells of 384-well plates in the absence or presence of graded compound concentrations with or without different dilutions of sterile-filtered WE in medium. For control samples, 30 μl medium was added instead of specific stimuli. The outer wells were loaded with sterile water. The cells were incubated for 72 hours at 37° C.
# (§2) At the end of the incubation period, supernatants were removed for the determination of IL-1β, and the cells were fixed with 4% paraformaldehyde (Morphisto) for 15 minutes at room temperature and washed 3 times with PBS. A control plate was fixed after the overnight adherence of the cells (day 1) to determine the starting cell number.
# Total cellular protein was determined as a measure of cell number by staining the fixed cells with sulforhodamine B (SRB, Sigma). A 0.4% SRB solution in 1% acetic acid was added to the wells for 30 minutes. The wells were then washed with 1% acetic acid until the wash solution remained colorless. After drying, the dye was eluted with 10 mM Tris-HCl, pH8.5, and absorbance was measured either at 550 or 492 nm for lower and higher cell densities, respectively. The average absorbance of the sample representing the day 1 starting cell number was subtracted from the absorbance values of the WE-treated cells.
# All experiments were carried out in triplicate for each sample and concentration, and means±standard deviation (SD) were used for the evaluation of the experiment. Results are expressed as percentage of control values for unstimulated cells.
# glucocorticoid receptor = target: T1, glucocorticoid receptor (Homo sapiens, UniProt P04150); details: for localization of the glucocorticoid receptor: 45 minutes at 37° C.
# T1 sequence (P04150 1-777): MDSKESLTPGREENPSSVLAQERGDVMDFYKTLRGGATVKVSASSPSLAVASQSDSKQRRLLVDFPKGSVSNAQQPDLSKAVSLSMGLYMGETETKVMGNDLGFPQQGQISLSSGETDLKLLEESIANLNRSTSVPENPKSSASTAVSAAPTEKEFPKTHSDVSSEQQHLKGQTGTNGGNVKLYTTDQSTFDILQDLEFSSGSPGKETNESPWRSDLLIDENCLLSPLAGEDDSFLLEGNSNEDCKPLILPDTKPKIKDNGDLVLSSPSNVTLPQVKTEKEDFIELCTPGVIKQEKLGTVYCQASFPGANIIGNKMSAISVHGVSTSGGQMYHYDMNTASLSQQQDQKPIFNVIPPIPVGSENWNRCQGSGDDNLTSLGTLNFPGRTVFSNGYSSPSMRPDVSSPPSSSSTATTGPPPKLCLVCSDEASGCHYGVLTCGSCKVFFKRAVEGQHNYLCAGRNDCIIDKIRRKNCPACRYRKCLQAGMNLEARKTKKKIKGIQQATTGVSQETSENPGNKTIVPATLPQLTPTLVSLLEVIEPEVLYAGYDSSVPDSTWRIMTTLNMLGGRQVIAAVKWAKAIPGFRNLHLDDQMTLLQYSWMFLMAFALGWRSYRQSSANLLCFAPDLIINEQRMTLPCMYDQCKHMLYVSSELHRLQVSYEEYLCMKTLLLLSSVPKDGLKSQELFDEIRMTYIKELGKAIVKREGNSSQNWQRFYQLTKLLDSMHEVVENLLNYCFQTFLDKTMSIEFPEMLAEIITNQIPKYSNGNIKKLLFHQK
# [2] = system: human dermal fibroblast (HDF) cells; assay: Fibroblast-derived matrix formation (FDM) assay, 3D fibroblast culture; format: cell-based; details: for formation of fibroblast-derived matrix (3D): WE from patient #92 (FIG. 12)
# Experimental: Human dermal fibroblast (HDF) cells were seeded at 1250 cells/well on day −3 into 384-well tissue culture plates, which had been pre-coated for 1 hour at 37° C. with 0.2% gelatin solution (Sigma). When the cells reached confluence (=day 0), a matrix promoting supplement (vitamin C: 2-phospho-L-ascorbic acid trisodium salt, 100 μg/ml; Sigma) was added together with test samples containing TGF-β1 or graded concentrations of compounds −/+WE as described for the HDF proliferation assay. After 4 days, medium was replaced by fresh vitamin C—and stimulus—as well as compound-containing medium, maintaining the conditions initiated on day 0. TGF-β1 was included as a positive control to promote FDM formation. After a total incubation time of 7 to 8 days, FDM production was measured in fixed cultures via SRB staining and evaluated as described above. In some cases, the experiment was stopped and evaluated already on day 4.
# IL-1β = IL-1β secretion into the supernatant in the fibroblast proliferation assay (ELISA); format: cell-based, human; details: graded concentrations
# Experimental: as §1, §2
# IL-1β levels were determined with a commercial ELISA kit. The amount of IL-1β contained in the wound exudate added to the cells was subtracted from the total IL-B in the supernatants in order to determine the cytokine secreted by the cells.
# IL-8 [3] = assay: Primary human monocyte cytokine secretion assay (spontaneous IL-8); format: cell-based; details: 16 hours (FIG. 16B)
# Experimental: Primary human monocytes were prepared from peripheral blood mononuclear cells (PBMC). PBMC were isolated from buffy coats obtained from the Red Cross, Vienna, using LymphoPrep (Technoclone). 30 ml of buffy concentrate was diluted 1:2 with PBS, gently underlayered with 15 ml Lymphoprep in a 50 ml Falcon tube and centrifuged for 25 minutes at 1800 rpm at 21° C. The interphase was carefully transferred to a new Falcon tube and filled up to 50 ml with ice cold PBS. After another centrifugation step (10 minutes, 1200 rpm, 4° C.), the cell pellet was washed 3 times with PBS, resuspended in RPMI medium containing 20% FCS and 10% DMSO and frozen in liquid nitrogen. Monocytes were generated from frozen aliquots using positive selection with the CD14 Beads-Kit (Miltenyi) on an autoMACS-Sorter (Miltenyi) according to the manufacturer's instructions.
# Cells were seeded at 8×10^5/ml in 50 μl/well of a 384-well plate and combined cells with graded concentrations of test compounds. After 16 hours, the supernatants were transferred to fresh plates and frozen at −20° C. for IL-8 analysis, using a commercial ELISA kit.
# IL-8 [4] = assay: U937 cell stimulation assay (LPS-induced IL-8); format: cell-based, human; details: LPS 100 ng/ml, 16 hours (FIG. 16A)
# Experimental: The human monocytic cell line U937 (ATCC CRL 1593) was routinely grown in RPMI_1640 supplemented by 10% FCS and 2 mM glutamine, and 100 U/ml penicillin/100 μg/ml streptomycin. Cells were seeded at 4×10^5/ml in 50 μl/well of a 384-well plate and combined cells with graded concentrations of test compounds and LPS at 100 ng/ml. After 16 hours, the supernatants were transferred to fresh plates and frozen at −20° C. for IL-8 analysis, using a commercial ELISA kit.
localization of the glucocorticoid receptor (glucocorticoid receptor; 0.1 nM),localization of the glucocorticoid receptor (glucocorticoid receptor; 1 nM),localization of the glucocorticoid receptor (glucocorticoid receptor; 100 nM),localization of the glucocorticoid receptor (glucocorticoid receptor; 10 nm),SMILES,formation of fibroblast-derived matrix (3D) [2],"IL-1β secretion into the supernatant (IL-1β; WE-1 (FIG. 2B, 9B))",IL-1β secretion into the supernatant (IL-1β; WE-2 (FIG. 10B)),IL-1β secretion into the supernatant (IL-1β; WE-3 (FIG. 11B)),"fibroblast proliferation (2D) with wound exudate ([1]; WE-1 (FIG. 2A, 9A))",fibroblast proliferation (2D) with wound exudate ([1]; WE-2 (FIG. 10A)),fibroblast proliferation (2D) with wound exudate ([1]; WE-3 (FIG. 11A)),also measured
–,N/C,N,N,CCOC[C@]12Cc3cnn(-c4ccc(F)cc4)c3C=C1CCN(S(=O)(=O)c1ccc(C(F)(F)F)cc1)C2 [CORT108297],–,–,–,–,–,–,–,–
N/C,N,N,N,CC(C)(C[C@@](O)(Cc1cc2ccncc2[nH]1)C(F)(F)F)c1cc(F)ccc1O [HY14234],found to be active,inhibited IL-1β secretion at the same concentrations,inhibition of IL-1β secretion was negligible,inhibited IL-1β secretion at the same concentrations,dose-dependent partial reversion of the wound exudate (WE)-induced inhibition of fibroblast proliferation,dose-dependently reversed inhibition of wound exudate (WE)-induced fibroblast proliferation,dose-dependently reversed inhibition of wound exudate (WE)-induced fibroblast proliferation,spontaneous IL-8 secretion in human monocytes (IL-8 [3]): inhibited both LPS-induced and spontaneous IL-8 secretion; LPS-induced IL-8 secretion in U937 cells (IL-8 [4]): inhibited both LPS-induced and spontaneous IL-8 secretion

# Further lines, the compound ahead of its results:
SMILES,localization of the glucocorticoid receptor (glucocorticoid receptor; 0.1 nM),localization of the glucocorticoid receptor (glucocorticoid receptor; 1 nM),localization of the glucocorticoid receptor (glucocorticoid receptor; 100 nM),localization of the glucocorticoid receptor (glucocorticoid receptor; 10 nm),formation of fibroblast-derived matrix (3D) [2],"IL-1β secretion into the supernatant (IL-1β; WE-1 (FIG. 2B, 9B))",IL-1β secretion into the supernatant (IL-1β; WE-2 (FIG. 10B)),IL-1β secretion into the supernatant (IL-1β; WE-3 (FIG. 11B)),"fibroblast proliferation (2D) with wound exudate ([1]; WE-1 (FIG. 2A, 9A))",fibroblast proliferation (2D) with wound exudate ([1]; WE-2 (FIG. 10A)),fibroblast proliferation (2D) with wound exudate ([1]; WE-3 (FIG. 11A)),also measured
"C[C@H](NC(=O)C(C)(F)F)[C@H](Oc1ccc2c(cnn2-c2cccc(C(=O)NC3CCOC3)c2)c1)c1ccc2c(c1)OCCO2 (stereo partly drawn) [AZD7594, 3-(5-((1R,2S)-2-(2,2-difluoropropanamido)-1-(2,3-dihydrobenzo[b][1,4]dioxin-6-yl)propoxy)-1H-indazol-1-yl)-N-(tetrahydrofuran-3-yl)benzamide]",N/C,N,N,N,most active of the SEGRM tested in 3D culture,–,–,–,–,–,–,"fibroblast proliferation, % proliferation of respective WE control ([1]; 1 μM, WE-02, WE control set to 100%): 196%; fibroblast proliferation, % proliferation of respective WE control ([1]; 1 μM, WE-03, WE control set to 100%): 161%; fibroblast proliferation, % proliferation of respective WE control ([1]; 1 μM, WE-04, WE control set to 100%): 1139%; fibroblast proliferation, % proliferation of respective WE control ([1]; 1 μM, WE-05, WE control set to 100%): 203%; fibroblast proliferation, % proliferation of respective WE control ([1]; 1 μM, WE-37, WE control set to 100%): 171%; fibroblast proliferation, % proliferation of respective WE control ([1]; 1 μM, WE-77, WE control set to 100%): 128%; efficacy on fibroblast proliferation compared with mapracorat ([1]; 1 μM, plurality of different wound exudates): comparable to the effect of mapracorat"
C[C@H]1C[C@H]2[C@@H]3CCC4=CC(=O)C=C[C@]4(C)[C@@]3(F)[C@@H](O)C[C@]2(C)[C@@]1(O)C(=O)CCl [Clobetasol],–,–,–,–,–,–,–,–,–,–,–,"glucocorticoid receptor localization, positive control (glucocorticoid receptor): shows nuclear staining"
Cc1noc(=O)c2ccc(NC(=O)C(O)(CC(C)(C)c3cccc4c3OCC4)C(F)(F)F)cc12 (centres unmarked) [ZK216348],–,–,–,–,positive effect,inhibited IL-1β secretion at the same concentrations,inhibition of IL-1β secretion was negligible,inhibited IL-1β secretion at the same concentrations,dose-dependent partial reversion of the wound exudate (WE)-induced inhibition of fibroblast proliferation,dose-dependently reversed inhibition of wound exudate (WE)-induced fibroblast proliferation,dose-dependently reversed inhibition of wound exudate (WE)-induced fibroblast proliferation,"rescue of fibroblasts in 2D culture from wound-exudate-induced inhibition of proliferation, compared with HY14234 ([1]; FIGS. 9A, 10A, 11A): less efficient"
CC#C[C@]1(O)CC[C@H]2[C@@H]3CCC4=CC(=O)CCC4=C3[C@@H](c3ccc(N(C)C)cc3)C[C@@]21C [mifepristone],–,–,–,–,–,–,–,–,–,–,–,"effect on the matrix-promoting activity of BI-653048 ([2]; mifepristone 1 μM, WE-1 (FIG. 4)): completely abrogated"
